These compounds were tested against T1, human CRHR2-alpha (Homo sapiens, UniProt Q13324) (assay: cAMP functional assay for human CRHR2 (LANCE Ultra cAMP, TR-FRET)). Settings: CHO-K1 cells expressing human CRHR2-alpha, agonist human urocortin2 at EC80, cAMP; read-out: IC50 against CRHR2.
T1 sequence (Q13324 1-411): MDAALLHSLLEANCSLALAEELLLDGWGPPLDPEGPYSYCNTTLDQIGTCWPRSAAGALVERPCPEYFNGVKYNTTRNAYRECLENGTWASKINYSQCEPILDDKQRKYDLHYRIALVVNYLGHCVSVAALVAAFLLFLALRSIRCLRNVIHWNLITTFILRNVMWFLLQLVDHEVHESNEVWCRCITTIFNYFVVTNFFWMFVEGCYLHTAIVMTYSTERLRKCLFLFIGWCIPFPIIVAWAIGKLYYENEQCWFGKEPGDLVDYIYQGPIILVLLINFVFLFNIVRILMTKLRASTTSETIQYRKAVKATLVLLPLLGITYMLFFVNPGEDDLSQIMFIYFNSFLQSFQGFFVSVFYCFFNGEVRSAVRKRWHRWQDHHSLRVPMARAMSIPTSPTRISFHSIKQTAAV
Format: cell-based
In short: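 Antagonism measured in CHO-K1 cells stably expressing the receptor, serum-starved 7 h then cryopreserved. Thawed cells in HBSS buffer with 0.1% BSA, 0.5 mM IBMX, 5 mM Hepes pH 7.4 were preincubated with compound 30 min at 25° C, then stimulated 30 min with EC80 agonist: urocortin2 for CRHR2, CRF for CRHR1.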

| SMILES | IC50 [nM] |
| --- | --- |
| COCc1ncc(Cl)cc1C(=O)N[C@H]1CC[C@H](Cn2c(=O)n(-c3ccc(C)nc3)c3ccccc32)CC1 [Example 329, 5-chloro-2-(methoxymethyl)-N-((1r,4r)-4-((3-(6-methyl-pyridin-3-yl)-2-oxo-2,3-dihydro-1H-benzo[d]imidazol-1-yl)methyl)cyclohexyl) nicotinamide] | < 300 |
| O=C(N[C@H]1CC[C@H](Cn2c(=O)n(-c3ccccc3Cl)c3cnccc32)CC1)c1cc(Cl)cnc1C(F)F [Example 721, 5-chloro-N-((1r,4r)-4-((3-(2-chlorophenyl)-2-oxo-2,3-dihydro-1H-imidazo[4,5-c]pyridin-1-yl)methyl)cyclo-hexyl)-2-(difluoromethyl) nicotinamide] | < 300 |
| COCCNc1ccc(-n2c(=O)n(C[C@H]3CC[C@H](NC(=O)c4cc(Cl)cnc4C(F)F)CC3)c3ccccc32)cn1 [Example 572, 5-chloro-2-(difluoromethyl)-N-((1r,4r)-4-((3-(6-((2-methoxyethyl)amino)pyridin-3-yl)-2-oxo-2,3-dihydro-1H-benzo[d]imidazol-1-yl)methyl)cyclohexyl)nicotinamide] | < 300 |
| O=C(N[C@H]1CC[C@H](Cn2c(=O)n(-c3ccc(N4CCCC4=O)nc3)c3ccccc32)CC1)c1cc(Cl)cnc1C(F)F [Example 498, 5-chloro-2-(difluoromethyl)-N-((1r,4r)-4-((2-oxo-3-(6-(2-oxopyrrolidin-1-yl)pyridin-3-yl)-2,3-dihydro-1H-benzo[d]imidazol-1-yl)methyl)cyclohexyl)nicotinamide] | < 300 |
| Cc1ncc(Cl)cc1C(=O)N[C@H]1CC[C@H](Cn2c(=O)n(-c3cnc4ccccc4c3)c3cccnc32)CC1 [Example 359, 5-chloro-2-methyl-N-((1r,4r)-4-((2-oxo-1-(quinolin-3-yl)-1H-imidazo[4,5-b]pyridin-3(2H)-yl)methyl)cyclohexyl) nicotinamide] | < 300 |
| Cc1ccc(-n2c(=O)n(C[C@H]3CC[C@H](NC(=O)c4cc(Cl)cnc4C)CC3)c3cccc(F)c32)cn1 [Example 121, 5-chloro-N-((1r,4r)-4-((4-fluoro-3-(6-methylpyridin-3-yl)-2-oxo-2,3-dihydro-1H-benzo[d]imidazol-1-yl)methyl)cyclo-hexyl)-2-methylnicotinamide] | < 300 |
| Cn1cc(-c2cccc(-n3c(=O)n(C[C@H]4CC[C@H](NC(=O)c5cc(Cl)cnc5C(F)F)CC4)c4ccccc43)c2)cn1 [Example 681, 5-chloro-2-(difluoromethyl)-N-((1r,4r)-4-((3-(3-(1-methyl-1H-pyrazol-4-yl)phenyl)-2-oxo-2,3-dihydro-1H-benzo [d]imidazol-1-yl)methyl)cyclo-hexyl)nicotinamide] | < 300 |
| Cc1ncc(Cl)cc1C(=O)N[C@H]1CC[C@H](Cn2c(=O)n(-c3cnc4c(c3)CCN4)c3ccccc32)CC1 [Example 152, 5-chloro-N-((1r,4r)-4-((3-(2,3-dihydro-1H-pyrrolo[2,3-b]pyridin-5-yl)-2-oxo-2,3-dihydro-1H-benzo[d]imidazol-1-yl)methyl)cyclohexyl)-2-methylnicotinamide] | < 300 |
| COCCNc1ccc(-n2c(=O)n(C[C@H]3CC[C@H](NC(=O)c4cc(Cl)cnc4C)CC3)c3ccccc32)cn1 [Example 593, 5-chloro-N-((1r,4r)-4-((3-(6-((2-methoxyethyl)amino)pyridin-3-yl)-2-oxo-2,3-dihydro-1H-benzo[d]imidazol-1-yl)methyl)cyclo-hexyl)-2-methylnicotinamide] | < 300 |
| COc1cccc(-n2c(=O)n(C[C@H]3CC[C@H](NC(=O)c4cc(Cl)cnc4C)CC3)c3ccccc32)c1C#N [Example 246, 5-chloro-N-((1r,4r)-4-((3-(2-cyano-3-methoxyphenyl)-2-oxo-2,3-dihydro-1H-benzo [d]imidazol-1-yl)methyl)cyclohexyl)-2-methyl-nicotinamide] | < 300 |
| CN(C)c1ccc(-n2c(=O)n(C[C@H]3CC[C@H](NC(=O)c4cc(Cl)cnc4C(F)F)CC3)c3ccccc32)cn1 [Example 381, 5-chloro-2-(difluoromethyl)-N-((1r,4r)-4-((3-(6-(dimethyl-amino)pyridin-3-yl)-2-oxo-2,3-dihydro-1H-benzo[d]imidazol-1-yl)methyl)cyclo-hexyl)nicotinamide] | < 300 |
| CNc1ccc(-n2c(=O)n(C[C@H]3CC[C@H](NC(=O)c4cc(Cl)cnc4C)CC3)c3c(F)cccc32)cn1 [Example 668, 5-chloro-N-((1r,4r)-4-((7-fluoro-3-(6-(methylamino)pyridin-3-yl)-2-oxo-2,3-dihydro-1H-benzo[d]imidazol-1-yl)methyl)cyclo-hexyl)-2-methylnicotinamide] | < 300 |
| Cc1ncc(Cl)cc1C(=O)N[C@H]1CC[C@H](Cn2c(=O)n(-c3ccc(N(C)C)nc3)c3ccccc32)CC1 [Example 52, 5-chloro-N-((1r,4r)-4-((3-(6-(dimethylamino)pyridin-3-yl)-2-oxo-2,3-dihydro-1H-benzo[d]imidazol-1-yl)methyl)cyclohexyl)-2-methylnicotinamide] | < 300 |
| Cc1ncc(Cl)cc1C(=O)N[C@H]1CC[C@H](Cn2c(=O)n(-c3ccc(N4CCCC(O)C4)nc3)c3ccccc32)CC1 (stereo partly drawn) [Example 95, 5-chloro-N-((1r,4r)-4-((3-(6-(3-hydroxypiperidin-1-yl)pyridin-3-yl)-2-oxo-2,3-dihydro-1H-benzo[d]imidazol-1-yl)methyl)cyclohexyl)-2-methylnicotinamide] | < 300 |
| O=C(N[C@H]1CC[C@H](Cn2c(=O)n(-c3ccc(O[C@@H]4CCOC4)nc3)c3ccccc32)CC1)c1cc(Cl)cnc1C(F)F [Example 428, 5-chloro-2-(difluoromethyl)-N-((1R,4r)-4-((2-oxo-3-(6-(((R)-tetrahydrofuran-3-yl)oxy)pyridin-3-yl)-2,3-dihydro-1H-benzo[d]imidazol-1-yl)methyl)cyclohexyl)nicotinamide] | < 300 |
| Cc1ncc(Cl)cc1C(=O)N[C@H]1CC[C@H](Cn2c(=O)n(-c3cccc(-n4ccnn4)c3)c3ccccc32)CC1 [Example 537, N-((1r,4r)-4-((3-(3-(1H-1,2,3-triazol-1-yl)phenyl)-2-oxo-2,3-dihydro-1H-benzo[d]imidazol-1-yl)methyl)cyclohexyl)-5-chloro-2-methylnicotinamide] | < 300 |
| CCn1nc2ncc(-n3c(=O)n(C[C@H]4CC[C@H](NC(=O)c5cc(Cl)cnc5C)CC4)c4ccccc43)cc2c1C [Example 295, 5-chloro-N-((1r,4r)-4-((3-(2-ethyl-3-methyl-2H-pyrazolo[3,4-b]pyridin-5-yl)-2-oxo-2,3-dihydro-1H-benzo[d]imidazol-1-yl)methyl)cyclohexyl)-2-methylnicotinamide] | < 300 |
| Cc1ncc(Cl)cc1C(=O)N[C@H]1CC[C@H](Cn2c(=O)n(-c3ccc(NC[C@H]4CCCO4)nc3)c3ccccc32)CC1 [Example 110, 5-chloro-2-methyl-N-((1R,4r)-4-((2-oxo-3-(6-((((R)-tetra-hydrofuran-2-yl)methyl)amino)pyridin-3-yl)-2,3-dihydro-1H-benzo[d]imidazol-1-yl)methyl)cyclohexyl)nicotinamide] | < 300 |
| COc1cc(-n2c(=O)n(C[C@H]3CC[C@H](NC(=O)c4cc(Cl)cnc4C)CC3)c3ccccc32)cnc1OC [Example 118, 5-chloro-N-((1r,4r)-4-((3-(5,6-dimethoxypyridin-3-yl)-2-oxo-2,3-dihydro-1H-benzo[d]imidazol-1-yl)methyl)cyclo-hexyl)-2-methylnicotinamide] | < 300 |
| CONC(=O)c1ccc(-n2c(=O)n(C[C@H]3CC[C@H](NC(=O)c4cc(Cl)cnc4C(F)(F)F)CC3)c3ccccc32)cn1 [Example 431, 5-(3-(((1r,4r)-4-(5-chloro-2-(trifluoromethyl)nicotinamido)cyclohexyl)methyl)-2-oxo-2,3-dihydro-1H-benzo[d]imidazol-1-yl)-N-methoxypicolinamide] | < 300 |
| O=C(N[C@H]1CC[C@H](Cn2c(=O)n(-c3ccnc(-c4cnco4)c3)c3ccccc32)CC1)c1cc(Cl)cnc1C(F)F [Example 687, 5-chloro-2-(difluoromethyl)-N-((1r,4r)-4-((3-(2-(oxazol-5-yl)pyridin-4-yl)-2-oxo-2,3-dihydro-1H-benzo[d]imidazol-1-yl)methyl)cyclohexyl) nicotinamide] | < 300 |
| CCn1nc2ccccc2c1C(=O)N[C@H]1CC[C@H](Cn2c(=O)n(-c3ccc(C(=O)NC)nc3)c3ccccc32)CC1 [Example 166, 2-ethyl-N-((1r,4r)-4-((3-(6-(methylcarbamoyl)pyridin-3-yl)-2-oxo-2,3-dihydro-1H-benzo [d]imidazol-1-yl)methyl)cyclo-hexyl)-2H-indazole-3-carboxamide] | < 300 |
| Cc1ncc(Cl)cc1C(=O)N[C@H]1CC[C@H](Cn2c(=O)n(-c3ccc(NCC(F)F)nc3)c3ccccc32)CC1 [Example 437, 5-chloro-N-((1r,4r)-4-((3-(6-((2,2-difluoroethyl)amino)pyridin-3-yl)-2-oxo-2,3-dihydro-1H-benzo[d]imidazol-1-yl)methyl)cyclohexyl)-2-methylnicotinamide] | < 300 |
| Cc1ncc(Cl)cc1C(=O)N[C@H]1CC[C@H](Cn2c(=O)n(-c3ccc4c(c3)oc(=O)n4CC3CC3)c3ccccc32)CC1 [Example 195, 5-chloro-N-((1r,4r)-4-((3-(3-(cyclopropylmethyl)-2-oxo-2,3-dihydrobenzo[d]oxazol-6-yl)-2-oxo-2,3-dihydro-1H-benzo[d]imidazol-1-yl)methyl)cyclohexyl)-2-methylnicotinamide] | < 300 |
